Measurements: patent publication US12697340B2, “Compositions and methods for cellular ageing, stress resilience, autophagy, inflammation and longevity” (JUVN3 Holdings, LLC, priority 2018, dated 2026)

Tests used:
Format in all cases: cell-based
[1] = system: LC3II/I ratio in C2C12 cells; test: Autophagy flux (LC3II/I ratio), C2C12 cells; settings: 24 hours with 400 uM H2O2, FIG. 6A
Protocol: (§1) Treatments and cells. 6-hour and 24-hour cell culture treatments were with one of the following compounds: 1. Control or “vehicle” (DMSO+phosphate-buffered saline only); 2. Niagen (5 μg/mL); 3. BHB (beta hydroxybutyrate) (30 ug/mL); 4. CBD (cannabidiol) (5 ug/mL); 5. Olive leaf (5 ug/mL); 6. Dynamine (1 ug/mL); 7. Selenium (2 ug/mL); 8. Tributyrin (5 ug/mL)
(§2) Treatment materials and methods. C2C12 cells were treated with compounds 1-8 as listed above for 6 hours without hydrogen peroxide (H2O2) (termed “unperturbed cells” throughout); or cells were treated with compounds 1-8 above for 24 hours with a concomitant 400 uM hydrogen peroxide (H2O2).
Autophagy flux (or activity) was assessed by assaying the LC3II/I ratio. This assay has been deemed the “gold standard” in autophagy monitoring (see e.g., Autophagy, 2007 Nov.-Dec.; 3(6):542-5).
(§3) Western blot analysis was performed using antibodies that detected p-H2AX protein, LC3I, LC3II, 4HNE, and NLRP3 proteins in both the C2C12 and EOMA cells. Ponceau stain was used for protein staining.

C2C12 cells = test: Total antioxidant capacity (TEAC assay), C2C12 cells with H2O2; settings: C2C12 cells co-incubated with H2O2, FIG. 5B
Protocol: Treatments and cells. 6-hour and 24-hour cell culture treatments were with one of the following compounds: 1. Control or “vehicle” (DMSO+phosphate-buffered saline only); 2. […] (5 μg/mL); 3. BHB (beta hydroxybutyrate) (30 ug/mL); 4. […] Olive leaf (5 ug/mL); 6. Dynamine (1 ug/mL); 7. […] Tributyrin (5 ug/mL) Treatment materials and methods. […] Total antioxidant capacity was assessed using a Trolox equivalent antioxidant capacity (TEAC) assay.

4HNE in C2C12 cells = test: Oxidative stress (4HNE assay), C2C12 cells; settings: C2C12 cells co-incubated with H2O2, FIG. 6C
Protocol: as §1, §2
Oxidative stress was assessed using the 4HNE assay which is a product of cellular lipid oxidation (see e.g., Am J Physiol Cell Physiol. 2016 Oct. 1; 311(4): C537-0543).
as §3

Row | Structure (SMILES) | autophagy (LC3II/I ratio) [1] | total antioxidant capacity (Trolox) (C2C12 cells) | total antioxidant capacity (Trolox) (C2C12 cells; listed as Selenium) | total antioxidant capacity (Trolox) (C2C12 cells; listed as Tributyrin) | cellular oxidative stress (4HNE) (4HNE in C2C12 cells)
1 | C=C(C)[C@@H]1CCC(C)=C[C@H]1c1c(O)cc(CCCCC)cc1O [CBD, cannabidiol] | increased autophagy |  |  |  | 
2 | [Se] [selenium] | increased autophagy | increase (e.g., restore) total antioxidant activity | increase or restore antioxidant capacity |  | 
3 | CCCC(=O)OCC(COC(=O)CCC)OC(=O)CCC [tributyrin] |  | increase (e.g., restore) total antioxidant activity |  | increase or restore antioxidant capacity | 
4 | CC(O)CC(=O)O (stereo not drawn) [BHB, beta hydroxybutyrate] | increased autophagy |  |  |  | decrease cellular oxidative stress
